The source of these data is PubChem BioAssay (NCI).

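Briefly, cells in 96-well plates were exposed to five compound concentrations for 48 h, and endpoints were estimated by linear interpolation. Abbreviation: GI50, concentration required for 50% inhibition of growth. TGI denotes the concentration required for complete inhibition of growth.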 A value given as a limit tells only on which side of the number the result lay.

The GI50 is the concentration at which growth is held to half of that of the control. By TGI is commonly meant the concentration giving total growth inhibition.

Holding throughout (test): DTP human tumour cell line panel, 48 h
Assay [1] concerns COLO 205 colon.
Assay [2] deals with HS 578T breast.
The subject of assay [3] is KM12 colon.
Assay [4] relates to M14 melanoma.
Assay [5] has as its system MCF7 breast.
For assay [6], the system named is RPMI-8226 leukemia.
Assay [7] has as its system SF-539 CNS.
Assay [8] deals with SK-OV-3 ovarian.
Assay [9] concerns SN12C renal.
Assay [10] concerns UACC-257 melanoma.

As for `COc1ccccc1-n1c(-c2cc(O)ccc2C)cn2c3c(=O)[nH]c(=O)n(C)c3nc12`, the GI50 in [1] was 18.2 µM; in assay [2] it was 0.567 µM; in assay [3], greater than 100 µM; in assay [4], 90.8 µM; in assay [5] it was greater than 100 µM; in assay [6] it was greater than 100 µM. Besides, the GI50 in assay [7] was 8.86 µM; in assay [8], 2.78 µM; in assay [9] it was 4.85 µM; in assay [10] it was greater than 100 µM. Besides, the concentration for total growth inhibition (TGI) in [1] is 48 µM; in assay [2] it was 5.75 µM; in assay [3], greater than 100 µM; in assay [4], greater than 100 µM; in [5], greater than 100 µM; in assay [6], greater than 100 µM. Besides, the TGI in assay [7], in assay [8], in assay [9] and in [10] was greater than 100 µM each time.

Regarding `C1CCN(CCC2CCCCN2)CC1` (configuration not stated), the total growth inhibition concentration (TGI) in [1], in [2], in [3], in [4], in assay [5] and in assay [6] was greater than 100 µM in each case. Also, the TGI in assay [7], in assay [8], in [9] and in assay [10] was greater than 100 µM throughout.

`CN(C)c1ccc(/C=C(/NC(=O)c2ccccc2)c2nc3ccc(Cl)cc3[nH]2)cc1`: the TGI in [1] is 66.7 µM; in assay [2], greater than 100 µM; in [3], greater than 100 µM; in assay [4] it was greater than 100 µM; in assay [5], greater than 100 µM; in assay [6], greater than 82.2 µM. Further, the concentration for total growth inhibition (TGI) was greater than 100 µM in assay [7], greater than 100 µM in assay [8], greater than 100 µM in assay [9] and greater than 86.5 µM in assay [10]. Besides, the GI50 was 59.6 µM in assay [2] and 24.5 µM in [5].

`CCn1c2c(n(CC)c1=S)-c1c(n(CC)c(=S)n1CC)SSSS2`: the TGI in assay [1] came to 19.1 µM; in [2] it was 91.1 µM; in [3] it was 35.9 µM; in assay [4], 18.1 µM; in assay [5], 40.7 µM; in assay [6], 9.34 µM. The TGI in [7] worked out at 28.2 µM; in [8], 98.9 µM; in [9], 24 µM; in assay [10] it was 22.6 µM.

For the compound `CCC(C)n1cc(C)c2c(C(=O)NCc3c(C)cc(C)[nH]c3=O)cc(Br)cc21` (configuration not stated), the GI50 is 42.1 µM in assay [1]; 35 µM in [2]; 38.1 µM in [3]; 35.2 µM in [4]; 29.4 µM in [5]; 24.8 µM in [6]. Also, the GI50 in assay [7] was greater than 100 µM; in assay [8], greater than 100 µM; in assay [9], 55.6 µM; in [10] it was 32.8 µM. Moreover, the concentration for total growth inhibition (TGI) was greater than 100 µM in [1]; greater than 100 µM in [2]; greater than 100 µM in assay [3]; greater than 100 µM in [4]; greater than 100 µM in [5]; 68 µM in [6]. The TGI in [7], in assay [8], in assay [9] and in assay [10] was greater than 100 µM throughout.

For `C=C(C)[C@@H]1CC[C@]2(C)[C@H](C(=O)C=C3[C@@H]4C[C@](C)(C(=O)N5CCN(C)CC5)CC[C@]4(C)CC[C@]32C)[C@@]1(C)CCC#N`, the GI50 in assay [1] was 5.78 µM; in [2] it was 7.99 µM; in [3], 6.43 µM; in assay [4], 6.86 µM; in [5], 5.45 µM; in [6] it was 5.47 µM. In addition, the GI50 in assay [7] was 6.3 µM; in [8], 6.03 µM; in assay [9], 6.37 µM; in [10] it was 6.39 µM. For the same compound, the TGI in assay [1] stood at 13.4 µM; in assay [2], 20.9 µM; in assay [3], 13.4 µM; in assay [4] it was 14.1 µM; in [5] it was 12.5 µM; in assay [6], 15.4 µM. Moreover, the total growth inhibition concentration (TGI) in assay [7] was 12.7 µM; in assay [8], 12.5 µM; in assay [9] it was 12.9 µM; in assay [10], 13.9 µM.

For the compound `CCCCCCCCCCCCCCCCCC1=NCCN1CS(=O)(=O)O`, the GI50 in assay [1] is 5.07 µM; in assay [2], 11.6 µM; in [3], 2.78 µM; in assay [4], 6.19 µM; in assay [5], 13.4 µM; in assay [6], 26.6 µM. The GI50 in [7] was 19.4 µM; in [8] it was 18.1 µM; in [9], 12.8 µM; in assay [10] it was 17.1 µM. Further, the TGI in [1] worked out at 18.5 µM; in assay [2] it was 40 µM; in [3] it was 8.49 µM; in assay [4] it was 21 µM; in assay [5], 35.2 µM; in assay [6], 90.1 µM. For the same compound, the total growth inhibition concentration (TGI) turned out to be 46.8 µM in assay [7], 39.4 µM in assay [8], 28.9 µM in [9] and 33.9 µM in assay [10].
